What was measured:
Experiment in all cases: In situ competitive SILAC profiling with A-DA probe in (PMA-stimulated) A549 cells
Conditions in all cases: A549 cells, A-DA probe
[1] = biological target: T1, A-DA lipid probe targets in A549 cells (Homo sapiens, UniProt Q96G23)
T1 sequence (Q96G23 1-380): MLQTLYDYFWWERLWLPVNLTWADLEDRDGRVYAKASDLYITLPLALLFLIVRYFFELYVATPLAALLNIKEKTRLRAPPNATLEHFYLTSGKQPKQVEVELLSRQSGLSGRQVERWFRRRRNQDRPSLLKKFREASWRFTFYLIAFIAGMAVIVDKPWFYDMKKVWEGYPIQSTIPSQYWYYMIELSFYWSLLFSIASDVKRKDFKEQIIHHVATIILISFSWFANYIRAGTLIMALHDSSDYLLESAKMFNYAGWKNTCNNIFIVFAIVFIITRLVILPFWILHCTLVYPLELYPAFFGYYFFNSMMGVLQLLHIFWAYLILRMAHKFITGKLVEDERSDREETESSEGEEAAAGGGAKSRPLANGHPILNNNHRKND

[2] = biological target: A-DA lipid probe targets in A549 cells (Homo sapiens, UniProt P21796)
[3] = biological target: T2, A-DA lipid probe targets in A549 cells (Homo sapiens, UniProt Q96KC8)
T2 sequence (Q96KC8 48-554): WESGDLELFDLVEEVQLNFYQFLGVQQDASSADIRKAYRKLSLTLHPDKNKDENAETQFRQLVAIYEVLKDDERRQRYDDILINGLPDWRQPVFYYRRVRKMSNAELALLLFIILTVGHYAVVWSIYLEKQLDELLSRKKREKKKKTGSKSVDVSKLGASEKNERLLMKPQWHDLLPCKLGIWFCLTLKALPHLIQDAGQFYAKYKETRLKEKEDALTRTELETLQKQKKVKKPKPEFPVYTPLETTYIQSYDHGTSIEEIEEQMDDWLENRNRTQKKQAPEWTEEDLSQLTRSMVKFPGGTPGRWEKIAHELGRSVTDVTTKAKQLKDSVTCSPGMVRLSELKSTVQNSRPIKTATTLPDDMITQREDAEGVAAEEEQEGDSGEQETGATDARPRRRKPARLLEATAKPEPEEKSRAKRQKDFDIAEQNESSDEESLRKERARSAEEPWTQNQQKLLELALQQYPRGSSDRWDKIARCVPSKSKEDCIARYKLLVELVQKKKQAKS

[4] = biological target: A-DA lipid probe targets in A549 cells (Homo sapiens, UniProt Q9NX47)
[5] = biological target: T3, A-DA lipid probe targets in A549 cells (Homo sapiens, UniProt O95470)
T3 sequence (O95470 1-568): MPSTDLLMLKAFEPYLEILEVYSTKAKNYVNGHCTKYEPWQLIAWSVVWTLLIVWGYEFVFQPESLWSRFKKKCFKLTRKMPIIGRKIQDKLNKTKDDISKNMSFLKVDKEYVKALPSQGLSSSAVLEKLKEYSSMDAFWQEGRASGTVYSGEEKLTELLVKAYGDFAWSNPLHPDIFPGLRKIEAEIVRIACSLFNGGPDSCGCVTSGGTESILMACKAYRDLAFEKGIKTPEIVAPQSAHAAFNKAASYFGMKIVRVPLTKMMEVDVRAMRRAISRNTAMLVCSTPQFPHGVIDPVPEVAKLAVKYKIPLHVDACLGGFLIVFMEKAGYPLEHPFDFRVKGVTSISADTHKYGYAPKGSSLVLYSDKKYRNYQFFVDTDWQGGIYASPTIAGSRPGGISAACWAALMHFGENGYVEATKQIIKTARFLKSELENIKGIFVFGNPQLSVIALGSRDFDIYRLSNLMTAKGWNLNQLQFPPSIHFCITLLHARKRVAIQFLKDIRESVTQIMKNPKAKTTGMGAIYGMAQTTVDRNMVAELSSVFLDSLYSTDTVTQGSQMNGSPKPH

[6] = biological target: T4, A-DA lipid probe targets in A549 cells (Homo sapiens, UniProt Q86XL3)
T4 sequence (Q86XL3 1-938): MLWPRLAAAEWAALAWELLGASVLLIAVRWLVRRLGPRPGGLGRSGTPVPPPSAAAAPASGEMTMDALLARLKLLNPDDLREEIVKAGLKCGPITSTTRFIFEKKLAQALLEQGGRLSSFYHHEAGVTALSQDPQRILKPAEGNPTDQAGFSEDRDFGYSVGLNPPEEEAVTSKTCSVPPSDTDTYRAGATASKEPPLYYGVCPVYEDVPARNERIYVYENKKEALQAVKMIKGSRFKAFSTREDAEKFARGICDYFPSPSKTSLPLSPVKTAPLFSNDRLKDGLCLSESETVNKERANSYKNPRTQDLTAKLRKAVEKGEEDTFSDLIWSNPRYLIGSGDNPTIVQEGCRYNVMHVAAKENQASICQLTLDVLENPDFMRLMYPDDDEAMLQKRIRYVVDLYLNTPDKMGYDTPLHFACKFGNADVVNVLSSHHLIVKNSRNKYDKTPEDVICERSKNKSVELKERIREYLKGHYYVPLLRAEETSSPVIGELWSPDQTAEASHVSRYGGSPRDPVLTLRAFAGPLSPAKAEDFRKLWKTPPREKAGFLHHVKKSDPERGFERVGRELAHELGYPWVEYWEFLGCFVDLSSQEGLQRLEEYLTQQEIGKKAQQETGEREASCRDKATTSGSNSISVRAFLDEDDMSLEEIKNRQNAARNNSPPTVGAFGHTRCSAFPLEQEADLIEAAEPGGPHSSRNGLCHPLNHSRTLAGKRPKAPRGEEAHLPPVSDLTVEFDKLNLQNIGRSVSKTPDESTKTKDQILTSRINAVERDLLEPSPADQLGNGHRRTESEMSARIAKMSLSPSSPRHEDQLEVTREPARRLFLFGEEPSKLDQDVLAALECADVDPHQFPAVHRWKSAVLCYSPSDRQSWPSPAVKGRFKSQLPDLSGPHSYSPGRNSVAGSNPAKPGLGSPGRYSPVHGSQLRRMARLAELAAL

Sequence of A-DA lipid probe targets in A549 cells (Homo sapiens, UniProt P21796) (P21796 whole entry): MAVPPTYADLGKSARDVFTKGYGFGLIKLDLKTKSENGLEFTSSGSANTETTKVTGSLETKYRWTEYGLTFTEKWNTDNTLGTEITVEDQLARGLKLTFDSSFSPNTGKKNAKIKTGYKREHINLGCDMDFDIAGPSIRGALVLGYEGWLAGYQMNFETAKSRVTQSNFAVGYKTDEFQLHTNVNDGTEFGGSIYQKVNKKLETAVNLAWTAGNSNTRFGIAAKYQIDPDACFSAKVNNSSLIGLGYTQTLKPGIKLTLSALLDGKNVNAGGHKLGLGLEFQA
Sequence of A-DA lipid probe targets in A549 cells (Homo sapiens, UniProt Q9NX47) (Q9NX47 whole entry): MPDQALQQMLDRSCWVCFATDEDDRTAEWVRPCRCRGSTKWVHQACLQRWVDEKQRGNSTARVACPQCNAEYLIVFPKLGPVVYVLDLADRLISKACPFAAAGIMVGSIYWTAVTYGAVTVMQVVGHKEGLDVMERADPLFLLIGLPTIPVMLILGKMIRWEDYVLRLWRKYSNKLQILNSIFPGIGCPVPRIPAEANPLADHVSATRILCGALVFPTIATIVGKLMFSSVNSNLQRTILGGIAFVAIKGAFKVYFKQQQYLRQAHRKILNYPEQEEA

Compound	SILAC ratio, CERS2 (Q924Z4) ([1]; competitor 25 μM)	SILAC ratio, VDAC1 (P21796) ([2]; competitor 25 μM)	SILAC ratio, DNAJC1 (Q96KC8) ([3]; competitor 25 μM)	SILAC ratio, MARCH5 (Q3KNM2) ([4]; competitor 25 μM)	SILAC ratio, SGPL1 (O95470) ([5]; competitor 25 μM)	SILAC ratio, ANKLE2 (Q86XL3) ([6]; competitor 25 μM)	SILAC ratio, CERS2 (Q924Z4) ([1]; competitor 5 μM)	SILAC ratio, CERS2 (Q924Z4) ([1]; competitor 50 μM)	SILAC ratio, VDAC1 (P21796) ([2]; competitor 5 μM)	SILAC ratio, VDAC1 (P21796) ([2]; competitor 50 μM)	SILAC ratio, DNAJC1 (Q96KC8) ([3]; competitor 5 μM)	SILAC ratio, DNAJC1 (Q96KC8) ([3]; competitor 50 μM)	SILAC ratio, MARCH5 (Q3KNM2) ([4]; competitor 5 μM)	SILAC ratio, SGPL1 (O95470) ([5]; competitor 5 μM)	SILAC ratio, SGPL1 (O95470) ([5]; competitor 50 μM)	SILAC ratio, ANKLE2 (Q86XL3) ([6]; competitor 5 μM)	SILAC ratio, ANKLE2 (Q86XL3) ([6]; competitor 50 μM)
O=C(/C=C/c1cccnc1)NCCCCC1CCN(C(=O)c2ccccc2)CC1 [FK-866, reference compound]	1.4	1.3	1.3	1.3	1.2	1.3	–	–	–	–	–	–	–	–	–	–	–
C=CCN(C)CCCCCCOc1ccc(C(=O)c2ccc(Br)cc2)c(F)c1 [Ro488071]	–	–	–	–	–	–	1.5	2.5	1.4	3.3	1.6	3.9	1.2	1.5	3.0	1.7	3.1

From US10168342B2, “Lipid probes and uses thereof” (THE SCRIPPS RESEARCH INSTITUTE, priority 2015, dated 2019)
